Laboratory results taken from ChEMBL document CHEMBL5034040, “Amide-to-Ester Substitution as a Strategy for Optimizing PROTAC Permeability and Cellular Activity” (J Med Chem, 2021).

Test: Permeability of the compound in PBS at pH 7.4 after 16 hrs by PAMPA
Type: ADME
Conditions: read-out: Peff

| Papp at 16 h | Structure (SMILES) |
| --- | --- |
| 0.2 ×10⁻⁶ cm/s | Cc1ncsc1-c1ccc([C@H](C)NC(=O)[C@@H]2C[C@@H](O)CN2C(=O)[C@@H](NC(=O)COCCCOCCNC(=O)C[C@@H]2N=C(c3ccc(Cl)cc3)c3c(sc(C)c3C)-n3c(C)nnc32)C(C)(C)C)cc1 |
| 0.01 ×10⁻⁶ cm/s | Cc1ncsc1-c1ccc(CNC(=O)[C@@H]2C[C@@H](O)CN2C(=O)[C@@H](NC(=O)COCCOCCOCCNC(=O)C[C@@H]2N=C(c3ccc(Cl)cc3)c3c(sc(C)c3C)-n3c(C)nnc32)C(C)(C)C)cc1 |
